The results in this text go back to US20120142667A1, “PYRIMIDINE DERIVATIVES AS ZAP-70 INHIBITORS” (priority 2009, published 2012).

The structures appear in SMILES notation. Where a name gives a salt, the structure may show the parent alone.

The test system of test [1] is Calcium Ion Release in Cells. As to the kind of experiment: calcium release assay (measurement of calcium ion release in cells). Format: cell-based. As to conditions: calcium release assay as described in WO-A 2009/080638.
The target in another test is T1, ZAP-70 (Homo sapiens, UniProt P43403).
T1 construct: endogenous in cells; host or cells: cell lysate
T1 sequence (P43403 1-619): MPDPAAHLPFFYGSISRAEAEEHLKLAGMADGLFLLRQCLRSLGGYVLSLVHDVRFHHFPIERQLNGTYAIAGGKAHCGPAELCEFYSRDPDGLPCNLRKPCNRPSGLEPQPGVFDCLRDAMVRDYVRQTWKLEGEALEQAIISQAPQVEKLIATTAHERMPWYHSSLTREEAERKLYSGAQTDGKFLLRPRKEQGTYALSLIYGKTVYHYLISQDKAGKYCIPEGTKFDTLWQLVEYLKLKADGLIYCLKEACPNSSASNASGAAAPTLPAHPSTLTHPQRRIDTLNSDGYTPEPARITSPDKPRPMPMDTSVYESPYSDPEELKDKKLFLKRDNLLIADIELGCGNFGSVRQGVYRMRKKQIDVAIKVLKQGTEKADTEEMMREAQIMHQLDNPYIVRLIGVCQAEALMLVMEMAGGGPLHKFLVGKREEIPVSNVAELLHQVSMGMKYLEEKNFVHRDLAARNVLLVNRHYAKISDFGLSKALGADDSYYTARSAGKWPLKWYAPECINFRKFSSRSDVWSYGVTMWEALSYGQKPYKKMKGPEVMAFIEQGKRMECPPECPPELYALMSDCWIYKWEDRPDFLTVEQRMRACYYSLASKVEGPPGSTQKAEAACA
As to the kind of experiment: ZAP-70 kinobeads assay. In kind it is binding. As to conditions: cell lysate. As to the method: The compounds of the present invention as described in the previous examples can be tested in the ZAP-70 kinobeads assay as described (EP-A 1862802 and WO-A 2007/137867). Briefly, test compounds (at various concentrations) and the affinity matrix with the immobilized aminopyrido-pyrimidine ligand 24 are added to cell lysate aliquots and allowed to bind to the proteins in the lysate sample. After the incubation time the beads with captured proteins are separated from the lysate. Bound proteins are then eluted and the presence ZAP-70 is detected and quantified using a specific antibody in a dot blot procedure and the Odyssey infrared detection system.

One may read the IC50 as the concentration needed to halve the response being measured. As to `COc1ccc(Nc2nc(Nc3cc(CCCO)ccc3OC)ncc2Cl)c(NS(C)(=O)=O)c1` [Example 112, N-(2-(5-chloro-2-(5-(3-hydroxypropyl)-2-methoxyphenylamino)pyrimidin-4-ylamino)-5-methoxyphenyl)methanesulfonamide], the 50% inhibitory concentration (IC50) in test [1] is at most 1 µM; at ZAP-70, 0.1 to 1 µM.

Turning to `COc1ccc(Nc2nc(Nc3cccc(OCCF)c3C)ncc2Cl)c(NS(C)(=O)=O)c1` [Example 92, N-(2-(5-chloro-2-(3-(2-fluoroethoxy)-2-methylphenylamino)pyrimidin-4-ylamino)-5-methoxyphenyl)methanesulfonamide], the IC50 in test [1] is at most 1 µM; at ZAP-70 it was 0.1 to 1 µM.

For `COc1ccc(Nc2nc(Nc3ccc(OCC(N)=O)cc3OC)ncc2Cl)c(NS(C)(=O)=O)c1` [Example 89, 2-(4-((5-chloro-4-((4-methoxy-2-(methylsulfonamido)phenyl)amino)pyrimidin-2-yl)amino)-3-methoxyphenoxy)acetamide], the results for the IC50 (in test [1]; against ZAP-70) were at most 1 µM and at most 0.1 µM, respectively.

Consider `COc1ccc(Nc2nc(Nc3cnc(OCCO)cc3C)ncc2Cl)c(NS(C)(=O)=O)c1` [Example 85, N-(2-(5-chloro-2-(6-(2-hydroxyethoxy)-4-methylpyridin-3-ylamino)pyrimidin-4-ylamino)-5-methoxyphenyl)methanesulfonamide], for which the results for the half-inhibitory concentration (IC50) (in test [1]; on ZAP-70) were at most 1 µM and 0.1 to 1 µM, respectively.

With `COc1ccc(Nc2nc(Nc3cc(OCC(N)=O)ccc3OC)ncc2Cl)c(NS(C)(=O)=O)c1` [Example 108, 2-(3-((5-chloro-4-((4-methoxy-2-(methylsulfonamido)phenyl)amino)pyrimidin-2-yl)amino)-4-methoxyphenoxy)acetamide], the concentration for half-maximal inhibition (IC50) in test [1] is at most 1 µM; on ZAP-70, at most 0.1 µM.

As to `COc1ccc(Nc2nc(Nc3cc(OCCO)ccc3Cl)ncc2Cl)c(NS(C)(=O)=O)c1` [Example 111, N-(2-((5-chloro-2-((2-chloro-5-(2-hydroxyethoxy)phenyl)amino)pyrimidin-4-yl)amino)-5-methoxyphenyl)methanesulfonamide], the IC50 was at most 1 µM in test [1] and 0.1 to 1 µM against ZAP-70.

With `COc1ccc(Nc2nc(Nc3cccc(OCCO)c3C)ncc2Cl)c(NS(C)(=O)=O)c1` [Example 65, N-(2-(5-chloro-2-(3-(2-hydroxyethoxy)-2-methylphenylamino)pyrimidin-4-ylamino)-5-methoxyphenyl)methanesulfonamide], the IC50 is at most 1 µM in test [1] and at most 0.1 µM at ZAP-70.

Turning to `COc1ccc(Nc2nc(Nc3ccc(C)nc3C)ncc2Cl)c(NS(C)(=O)=O)c1` [Example 75, N-(2-(5-chloro-2-(2,6-dimethylpyridin-3-ylamino)pyrimidin-4-ylamino)-5-methoxyphenyl)methanesulfonamide], the half-maximal inhibitory concentration (IC50) in test [1] was at most 1 µM; on ZAP-70, at most 0.1 µM.

`COc1ccc(Nc2nc(Nc3cc(OCCO)ccc3C)ncc2Cl)c(NS(C)(=O)=O)c1` [Example 88, N-(2-(5-chloro-2-(5-(2-hydroxyethoxy)-2-methylphenylamino)pyrimidin-4-ylamino)-5-methoxyphenyl)methanesulfonamide]: the half-inhibitory concentration (IC50) in test [1] is at most 1 µM; against ZAP-70, at most 0.1 µM.

As for `COc1ccc(Nc2nc(Nc3ccc(OCCO)cc3OC)ncc2Cl)c(NS(C)(=O)=O)c1` [Example 4, N-(2-(5-chloro-2-(4-(2-hydroxyethoxy)-2-methoxyphenylamino)pyrimidin-4-ylamino)-5-methoxyphenyl)methanesulfonamide], the results for the IC50 (in test [1]; against ZAP-70) were at most 1 µM and at most 0.1 µM, respectively.

As to `COc1ccc(Nc2nc(Nc3cc(OCCN)ccc3OC)ncc2Cl)c(NS(C)(=O)=O)c1` [Example 67, N-(2-(2-(5-(2-aminoethoxy)-2-methoxyphenylamino)-5-chloropyrimidin-4-ylamino)-5-methoxyphenyl)methanesulfonamide hydrochloride], the concentration for half-maximal inhibition (IC50) in test [1] is at most 1 µM; at ZAP-70, 0.1 to 1 µM.

In the case of `COc1ccc(Nc2nc(Nc3cc(OCCO)ccc3OC)ncc2Cl)c(NS(C)(=O)=O)c1` [Example 68, N-(2-(5-chloro-2-(5-(2-hydroxyethoxy)-2-methoxyphenylamino)pyrimidin-4-ylamino)-5-methoxyphenyl)methanesulfonamide], the IC50 was at most 1 µM in test [1] and at most 0.1 µM against ZAP-70.

With `COc1ccc(Nc2nc(Nc3cccnc3OC)ncc2Cl)c(NS(C)(=O)=O)c1` [Example 79, N-(2-(5-chloro-2-(2-methoxypyridin-3-ylamino)pyrimidin-4-ylamino)-5-methoxyphenyl)methanesulfonamide], the results for the IC50 (in test [1]; at ZAP-70) were at most 1 µM and 0.1 to 1 µM, respectively.

Consider `COc1ccc(Nc2nc(Nc3ccc(OCCN)cc3OC)ncc2Cl)c(NS(C)(=O)=O)c1` [Example 63, N-(2-(2-(4-(2-aminoethoxy)-2-methoxyphenylamino)-5-chloropyrimidin-4-ylamino)-5-methoxyphenyl)methanesulfonamide], for which the results for the half-maximal inhibitory concentration (IC50) (in test [1]; at ZAP-70) were at most 1 µM and 0.1 to 1 µM, respectively.

`COc1ccc(Nc2nc(Nc3cc(OC)c(OC)cc3OC)ncc2Cl)c(NS(C)(=O)=O)c1` [Example 29, N-(2-(5-chloro-2-(2,4,5-trimethoxyphenylamino)pyrimidin-4-ylamino)-5-methoxyphenyl)methanesulfonamide]: the figures for the IC50 (in test [1]; on ZAP-70) were at most 1 µM and 0.1 to 1 µM, respectively.

As to `COc1ccc(Nc2nc(Nc3ccc(OC)c(OC)c3OC)ncc2Cl)c(NS(C)(=O)=O)c1` [Example 32, N-(2-(5-chloro-2-(2,3,4-trimethoxyphenylamino)pyrimidin-4-ylamino)-5-methoxyphenyl)methanesulfonamide hydrochloride], the half-maximal inhibitory concentration (IC50) in test [1] is at most 1 µM; against ZAP-70, 0.1 to 1 µM.

On to `COc1ccc(Nc2nc(Nc3ccc(OCCCN4CCCCC4)cc3OC)ncc2Cl)c(NS(C)(=O)=O)c1` [Example 30, N-(2-(5-chloro-2-(2-methoxy-4-(3-(piperidin-1-yl)propoxy)phenylamino)pyrimidin-4-ylamino)-5-methoxyphenyl)methanesulfonamide], for which the IC50 is at most 1 µM in test [1] and at most 0.1 µM on ZAP-70.

For the molecule `COc1ccc(Nc2nc(Nc3cnc(OC)cc3OC)ncc2Cl)c(NS(C)(=O)=O)c1` [Example 3, N-(2-(5-chloro-2-(4,6-dimethoxypyridin-3-ylamino)pyrimidin-4-ylamino)-5-methoxyphenyl)methanesulfonamide], the concentration for half-maximal inhibition (IC50) in test [1] was at most 1 µM; on ZAP-70, at most 0.1 µM.

`COc1ccc(Nc2nc(Nc3cc(OC)c(CC(=O)O)cc3OC)ncc2Cl)c(NS(C)(=O)=O)c1` [Example 100, 2-(4-((5-chloro-4-((4-methoxy-2-(methylsulfonamido)phenyl)amino)pyrimidin-2-yl)amino)-2,5-dimethoxyphenyl)acetic acid] showed a half-maximal inhibitory concentration (IC50) on ZAP-70 of at most 0.1 µM.

At ZAP-70, `COc1ccc(Nc2nc(Nc3cc(OC)c(OC)cc3OC)ncc2F)c(NS(C)(=O)=O)c1` [Example 25, N-(2-(5-fluoro-2-(2,4,5-trimethoxyphenylamino)pyrimidin-4-ylamino)-5-methoxyphenyl)methanesulfonamide] displayed an IC50 of 0.1 to 1 µM.

Molecule `CCc1ccccc1Nc1ncc(Br)c(Nc2ccccc2NS(C)(=O)=O)n1` [Example 19, N-(2-(5-bromo-2-(2-ethylphenylamino)pyrimidin-4-ylamino)phenyl)methanesulfonamide hydrochloride] returned an IC50 against ZAP-70 of 1 to 10 µM.

As to `COc1ccc(Nc2nc(Nc3cncc(OC)c3OC)ncc2Cl)c(NS(C)(=O)=O)c1` [Example 81, N-(2-(5-chloro-2-(4,5-dimethoxypyridin-3-ylamino)pyrimidin-4-ylamino)-5-methoxyphenyl)methanesulfonamide], on ZAP-70, the IC50 was 1 to 10 µM.

As for `COc1ccc(Nc2nc(Nc3cc(OCCO)c(OC)cc3C)ncc2Cl)c(NS(C)(=O)=O)c1` [Example 114, N-(2-(5-chloro-2-(5-(2-hydroxyethoxy)-4-methoxy-2-methylphenylamino)pyrimidin-4-ylamino)-5-methoxyphenyl)methanesulfonamide], at ZAP-70, the IC50 fell in the range of 1 to 10 µM.

As for `COc1ccc(Nc2ncc(F)c(Nc3ccccc3NS(C)(=O)=O)n2)c(OC)c1` [Example 14, N-(2-(2-(2,4-dimethoxyphenylamino)-5-fluoropyrimidin-4-ylamino)phenyl)methanesulfonamide], the IC50 on ZAP-70 fell in the range of 1 to 10 µM.

With `COc1ccc(Nc2nc(Nc3cccc(F)c3OC)ncc2Cl)c(NS(C)(=O)=O)c1` [Example 61, N-(2-(5-chloro-2-(3-fluoro-2-methoxyphenylamino)pyrimidin-4-ylamino)-5-methoxyphenyl)methanesulfonamide hydrochloride], the IC50 at ZAP-70 lay within 1 to 10 µM.

Turning to `COc1ccc(Nc2nc(Nc3cc(OC)c(C)cc3OC)ncc2Cl)c(NS(C)(=O)=O)c1` [Example 47, N-(2-(5-chloro-2-(2,5-dimethoxy-4-methylphenylamino)pyrimidin-4-ylamino)-5-methoxyphenyl)methanesulfonamide], the half-inhibitory concentration (IC50) at ZAP-70 is 0.1 to 1 µM.
